Test results reported in patent US8354111B2, “Stable cell binding chimeric peptides” (Hadasit Medical Research Services and Development Ltd., priority 2008, dated 2013).
No end group written: not given here.

Tests used:
[1] = Toxicity assessment, cell survival of fibroblasts; format: cell-based; settings: human, fibroblasts (FF), increasing concentrations up to 1,000 ng/ml, 48 hours of exposure
Method: (§1) The chimeric peptides of the invention and the peptides from which they are derived were found safe, non-toxic, to normal cells such endothelial cells (BAEC; FIG. 9a) and fibroblasts (FF; FIG. 9B). Cells incubated with increasing concentrations (up to 1,000 ng/ml) of the chimeric peptide (black square), the haptide alone (white/empty circle) or the M-tide alone (white/empty square), maintained 100% survival. Cell survival was measured following 48 hours of exposure to the peptides.

[2] = Toxicity assessment, cell survival of endothelial cells; format: cell-based; settings: bovine, endothelial cells (BAEC), increasing concentrations up to 1,000 ng/ml, 48 hours of exposure
Method: as §1

Row | Sequence | viability at 48 h [1] [%] | viability at 48 h [2] [%]
1 | KTRWYSMKKTTMK [haptide, KTRWYSMKKTTMK, reference compound] | 100 | 100
2 | VFQKRLDGSVDFKK [M-tide, VFQKR LDGSV DFKK] | 100 | 100
3 | KTRWYSMKKTTMKVFQKRLDGSVDFKK [chimeric peptide] | 100 | 100
